Results published in patent US20220016215A1, “GIP RECEPTOR AGONIST PEPTIDE COMPOUNDS AND USES THEREOF” (TAKEDA PHAARMACEUTICAL COMPANY LIMITED, priority 2018, published 2022).
Read-outs that look alike come from different tables or passages of the source. Values belong to the molecule of their own block, whether it stands above or below them.

Legend:
human GLP-1R = human GLP-1R (Homo sapiens, UniProt P43220); assay: Agonist activity on human GLP-1R, CRE-luciferase reporter assay (increase in intracellular cAMP as indicator); format: cell-based; design: expressed in transfected cells; details: hGLP-1R/CRE-luc/CHO-K1 cells, 4 h incubation
From the text: The human GIPR gene having an identical sequence to Genebank Accession No. U39231 is cloned into a pMSRα-neo vector to prepare hGIPR/pMSRα-neo.
(3) Construction of Reporter Plasmid
Four copies of a cAMP responsive sequence and a Zeocin resistance gene are transferred to pGL3(R2.2)-Basic Vector (Promega) to construct a Cre-luc(Zeo) reporter plasmid.
(5) Construction of Expression Plasmid of Human GLP-1R Gene
The human GLP-1R gene having an identical sequence to Genebank Accession No. NM_002062 is cloned into a pIRESneo3 vector to prepare hGLP-1/pIRESneo3.
(6) Transfer of Human GLP-1R Gene and Reporter Plasmid to CHO-K1 Cell and Obtaining of Expressing Cell
The Cre-luc (Zeo) obtained in (3) and the plasmid hGLP-1/pIRESneo3 obtained in (5) transferred to the CHO-K1 cell to obtain a transformant. Subsequently, the cell line inducing the luciferase expression, hGLP-1R/CRE-luc/CHO-K1 cell, is selected from the obtained transformant by adding GLP-1.
The GLP-1R agonist activity is assayed in the same manner as above using the hGLP-1R/CRE-luc/CHO-K1 cell.

[1] = tested on: morphine (0.6 mg/kg, s.c.)-induced emesis in ferrets; assay: Morphine-induced acute emetic model in male ferrets; format: in vivo, ferret
Method in brief: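 Male ferrets (4 per group) received peptide at 10 or 30 nmol/kg s.c. in 0.09% Tween 80/10% DMSO/saline, or vehicle. Morphine 0.6 mg/kg s.c. was given 4 or 120 h later, and abdominal contractions, vomiting, licking and fidgeting were recorded for up to 360 min.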

human GIPR = target: T1, human GIPR (Homo sapiens, UniProt P48546); assay: Agonist activity on human GIPR, CRE-luciferase reporter assay (increase in intracellular cAMP as indicator); format: cell-based; details: for Selectivity Ratio (B/A): GLP1R EC50 / GIPR EC50; for EC50: hGIPR/CRE-LUC/CHO-K1 cells, 4 h incubation
T1 construct: expressed in transfected cells
T1 sequence (P48546 22-466): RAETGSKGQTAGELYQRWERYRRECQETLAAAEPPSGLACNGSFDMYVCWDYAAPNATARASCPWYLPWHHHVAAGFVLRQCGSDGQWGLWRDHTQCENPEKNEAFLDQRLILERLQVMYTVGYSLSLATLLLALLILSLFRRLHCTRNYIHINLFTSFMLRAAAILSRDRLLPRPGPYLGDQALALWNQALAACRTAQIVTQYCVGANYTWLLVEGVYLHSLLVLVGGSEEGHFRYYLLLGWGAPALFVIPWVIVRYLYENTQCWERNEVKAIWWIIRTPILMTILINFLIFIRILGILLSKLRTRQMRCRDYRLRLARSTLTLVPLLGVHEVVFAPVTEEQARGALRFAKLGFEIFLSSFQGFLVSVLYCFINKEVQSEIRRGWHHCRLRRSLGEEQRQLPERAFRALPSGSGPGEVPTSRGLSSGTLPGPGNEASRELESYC
Method in brief: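 CHO-K1 cells carrying CRE-luciferase and stably expressing human GIPR, 5×10^3 cells/well, exposed to compound for 4 hours at 37° C.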

[2] = ferret, morphine 0.6 mg/kg s.c. 0.5 h after drug, 128 μg/kg s.c.
[3] = ferret, morphine 0.6 mg/kg s.c. 0.5 h after drug, 128 μg/kg s.c., non-responders counted as 30 min

human GLP-1R, sequence (P43220 24-463): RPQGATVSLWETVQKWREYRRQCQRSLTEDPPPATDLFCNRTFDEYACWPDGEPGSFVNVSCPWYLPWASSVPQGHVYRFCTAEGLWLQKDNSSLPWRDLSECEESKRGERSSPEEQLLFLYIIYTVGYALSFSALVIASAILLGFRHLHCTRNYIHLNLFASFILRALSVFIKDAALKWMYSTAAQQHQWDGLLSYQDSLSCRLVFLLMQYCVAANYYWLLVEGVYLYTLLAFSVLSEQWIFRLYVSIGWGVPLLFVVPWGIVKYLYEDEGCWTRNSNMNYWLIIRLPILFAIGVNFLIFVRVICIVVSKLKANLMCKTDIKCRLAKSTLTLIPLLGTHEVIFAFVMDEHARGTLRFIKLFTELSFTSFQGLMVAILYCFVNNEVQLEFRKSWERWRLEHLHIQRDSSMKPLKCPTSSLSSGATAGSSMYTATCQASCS

Compound: CC[C@H](C)[C@H](NC(=O)[C@H](CO)NC(=O)[C@H](Cc1ccc(O)cc1)NC(=O)[C@H](CC(=O)O)NC(=O)[C@H](CO)NC(=O)[C@@H](NC(=O)[C@H](Cc1ccccc1)NC(=O)[C@@H](NC(=O)CNC(=O)[C@@H]1CCCN1C(=O)[C@H](C)NC(=O)[C@@H](N)Cc1ccc(O)cc1)[C@@H](C)O)[C@@H](C)CC)C(=O)N[C@@H](C)C(=O)N[C@@H](CCSC)C(=O)N[C@@H](CC(=O)O)C(=O)N[C@@H](CCCCN)C(=O)N[C@H](C(=O)N[C@@H](Cc1c[nH]cn1)C(=O)N[C@@H](CCC(N)=O)C(=O)N[C@@H](CCC(N)=O)C(=O)N[C@@H](CC(=O)O)C(=O)N[C@@H](Cc1ccccc1)C(=O)N[C@H](C(=O)N[C@@H](CC(N)=O)C(=O)N[C@@H](Cc1c[nH]c2ccccc12)C(=O)N[C@@H](CC(C)C)C(=O)N[C@@H](CC(C)C)C(=O)N[C@@H](C)C(=O)N[C@@H](CCC(N)=O)C(=O)N[C@@H](CCCCN)C(=O)N1CCC[C@H]1C(=O)N[C@@H](CO)C(=O)N[C@@H](CO)C(=O)NCC(=O)N[C@@H](C)C(=O)N1CCC[C@H]1C(=O)N1CCC[C@H]1C(=O)N1CCC[C@H]1C(=O)N[C@@H](CO)C(N)=O)C(C)C)[C@@H](C)CC [Compound 12]
- EC50 (human GLP-1R; read-out: GLP1R EC50 nM (B)): > 1000 nM
- Emesis: Duration [1, 2]: 1.5 ± 2.4 min
- Emesis: Frequency [1, 2]: 3.8 ± 5.7
- Emesis: No. of animals (responder/used) [1, 2]: 2/4
- Fidget: Duration [1, 2]: 1.3 ± 1.9 min
- Fidget: Frequency [1, 2]: 0.8 ± 1.0
- Fidget: No. of animals (responder/used) [1, 2]: 2/4
- Licking: Duration [1, 2]: 1.5 ± 1.7 min
- Licking: Frequency [1, 2]: 1.3 ± 1.0
- Licking: No. of animals (responder/used) [1, 2]: 3/4
- Retching: Duration [1, 2]: 1.5 ± 2.4 min
- Retching: Frequency [1, 2]: 3.3 ± 5.3
- Retching: No. of animals (responder/used) [1, 2]: 2/4
- Vomiting: Duration [1, 2]: 0.5 ± 0.6 min
- Vomiting: Frequency [1, 2]: 0.5 ± 0.6
- Vomiting: No. of animals (responder/used) [1, 2]: 2/4
- Emesis: Latency [1, 3]: 18.3 ± 13.7 min
- Fidget: Latency [1, 3]: 18.3 ± 13.7 min
- Licking: Latency [1, 3]: 13.8 ± 11.3 min
- Retching: Latency [1, 3]: 18.3 ± 13.7 min
- Vomiting: Latency [1, 3]: 19.5 ± 12.1 min
- Attenuation of morphine-induced emesis (in words) ([1]; male ferrets, 30 nmol/kg s.c. 30 minutes before morphine 0.6 mg/kg s.c.): completely attenuated
- Comment: Anti-Emetic Activity (inhibition) on morphine-induced emesis ([1]; male ferrets, summary of the morphine experiments): partial inhibition
- Selectivity Ratio (B/A) (human GIPR): >23,810
- EC50 (human GIPR; read-out: GIPR EC50 nM (A)): 0.042 nM

- EC50 (human GLP-1R; read-out: GLP1R EC50 nM (B)): < 0.02 nM
- EC50 (human GLP-1R; read-out: GLP1R pEC50 (converted)): 0.017 nM
- Selectivity Ratio (B/A) (human GIPR): 20
- EC50 (human GIPR; read-out: GIPR pEC50 (converted)): 0.001 nM
Compound: CC[C@H](C)[C@H](NC(=O)[C@H](CC(C)C)NC(=O)[C@H](Cc1c[nH]c2ccccc12)NC(=O)[C@H](CCC(N)=O)NC(=O)[C@@H](NC(=O)[C@H](Cc1ccccc1)NC(=O)[C@H](C)NC(=O)[C@H](CCCNC(=N)N)NC(=O)[C@H](CCC(N)=O)NC(=O)[C@H](C)NC(=O)[C@@H](NC(=O)[C@H](CCCCN)NC(=O)[C@H](CC(=O)O)NC(=O)[C@H](CC(C)C)NC(=O)C(C)(C)NC(=O)[C@@H](NC(=O)[C@H](CO)NC(=O)[C@H](Cc1ccc(O)cc1)NC(=O)[C@H](CC(=O)O)NC(=O)[C@H](CO)NC(=O)[C@@H](NC(=O)[C@H](Cc1ccccc1)NC(=O)[C@@H](NC(=O)CNC(=O)[C@H](CCC(=O)O)NC(=O)C(C)(C)NC(=O)[C@@H](N)Cc1ccc(O)cc1)[C@@H](C)O)[C@@H](C)O)[C@@H](C)CC)[C@@H](C)CC)C(C)C)C(=O)N[C@@H](C)C(=O)NC(C)(C)C(=O)N[C@@H](CCCCN)C(=O)NCC(=O)N[C@@H](CCCCN)C(=O)N[C@@H](CCCCN)C(=O)N[C@@H](CCC(N)=O)C(=O)N[C@@H](CCC(=O)O)C(=O)N[C@@H](Cc1c[nH]c2ccccc12)C(=O)N[C@@H](CCCCN)C(=O)N[C@@H](Cc1c[nH]cn1)C(=O)N[C@@H](CCC(N)=O)C(=O)N[C@H](C(=O)N[C@H](C(=O)N[C@@H](CCC(N)=O)C(=O)N[C@@H](CCCCNC(C)=O)C(N)=O)[C@@H](C)O)[C@@H](C)CC [Compound 16]
